Experiments:
MAPK kinase = assay: Western blotting, activated MAPK kinase in MDI-induced adipocytes; format: cell-based, mouse; details: MDI-induced adipocytes (ERK, JNK, p38)
Experimental: (§1) 3T3-L1 cells were inoculated into a 6-well plate in a density of 8×10^4 cells/well, and the medium was replaced until the confluence is satisfied. For differentiation, cells were incubated in differentiation media (0.5 mM IBMX, 0.5 μM dexamethasone, and 1 μg/mL insulin). The medium was then replaced with a maintenance culture including 1 μg/mL insulin and PC (0-50 μM) once every 2 days.
(§2) Cell lysis buffer (Cell Signaling Technology) was used to lyse cells. The reagent for Bio-Rad protein assay was used to measure protein concentrations for Bradford assay. Each sample was separated by sodium dodecyl sulfate polyacrylamide gel electrophoresis using 8% acrylamide gel and then electrotransferred to a nitrocellulose membrane. The membrane was blocked with 3% bovine serum albumin (BSA) in Tris buffered saline/Tween 20 (TBS-T) at 4° C. for 1 hour and incubated overnight at 4° C. with COX-2, C/EBPα, PPARγ, SREBP1c, FAS, p-ACC, t-ACC, p-AMPK, t-AMPK (1:2000), and β-actin (1:10,000) antibodies. The membrane was extensively washed with TBS-T at 3 or more times for 30 minutes and incubated with goat anti-rabbit IgG-horseradish peroxidase (HRP) and goat anti-mouse IgG-HRP (1:10,000 all in TBS-T) secondary antibodies for 1 hour.
(§3) Next, MAPK and Akt signaling in adipocytes in the presence of PC were investigated by Western Blotting.

PPARγ [1] = assay: Western blotting, PPARγ protein in MDI-induced 3T3-L1 adipocytes; format: cell-based, mouse; details: vs MDI-induced group
Experimental: as §1, §2
(§4) To investigate how PC inhibits adipose tissue generation in 3T3-L1 cells, investigation was performed on protein expression levels of key adipose tissue generation markers. […]

HepG2 cells [2] = assay: MTT assay, cell viability in NEFA-treated fatty liver-induced HepG2 cell model; format: cell-based, human; details: 1 mM NEFA with 50 µM PC, 24 hours
Experimental: (§5) HepG2 cells were inoculated into a 6-well plate in a density of 3×10^5 cells/well and incubated for one day. Then, for fatty liver induction, an FBS-free RPMI medium supplemented with 1% bovine serum albumin (BSA) and NEFA (0.66 mM oleic acid and 0.33 mM palmitic acid) was treated, followed by incubation for 24 hours. When treated with PC (0-50 μM), fatty liver induction medium was treated together for incubation for 24 hours.
(§6) HepG2 hepatocytes were inoculated into a 96-well cell culture plate by 1×10^4 cells/well and incubated overnight. Then, for 24 hours, they were replaced with fatty liver induction media including different concentrations of PC (0, 5, 10, 25, 50, and 100 μM).
(§7) After PC treatment, cells were incubated with MTT solution (0.5 mg/ml dissolved in PBS) for 2 hours. After incubation, the medium in each well was removed, and dimethyl sulfoxide was added to dissolve the precipitated formazan. When formazan was completely dissolved, the absorbance was measured at 540 nm using a microplate reader (Bio-Rad) to determine cell viability.
To determine the preventive and therapeutic effects of PC in fatty liver-induced cell models, treatment of 1 mM NEFA as well as various concentrations of PC (0, 5, 10, 25, 50 μM) were performed for 24 hours, and then MTT assay was used to determine cell viability.

Akt = assay: Western blotting, activated Akt in MDI-induced adipocytes; format: cell-based, mouse
Experimental: as §1, §2, §3

FAS [3] = assay: Western blotting, FAS in NEFA-induced fatty liver HepG2 cells; format: cell-based, human; details: dose-dependently, vs NEFA-induced fatty liver cells
Experimental: as §5, §2
(§8) Due to treatment of free fatty acids such as NEFA, fatty liver is induced by fat accumulation. […]

C/EBPδ = assay: Real-time PCR, C/EBPδ mRNA in 3T3-L1 adipocytes; format: cell-based, mouse; details: vs adipocytes
Experimental: as §1
(§9) Cells were treated with Ribo-Ex to extract RNA using GeneAll Hybrid-R RNA purification kit (GeneAll, Seoul, Korea). RNA was quantified using NanoDrop (Thermo Fisher Scientific). Amplification of complementary DNA was performed at 45° C. for 60 minutes and 95° C. for 15 minutes using a Maxime RT premix (iNtRON Biotechnology, South Korea). Real-time quantitative PCR was performed using the Universal SYBR Green Master Mix (Applied Biosystems, Foster City, CA, USA). Real-time PCR was performed on Applied Biosystems StepOne System (Applied Biosystems). In this study, relative target gene expression was quantified relatively to gene expression of glyceraldehyde 3-phosphate dehydrogenase to determine mRNA expression levels.
(§10) In order to additionally identify expression of other adipose tissue generation markers such as C/EBPβ and C/EBPδ, mRNA levels of these markers were examined.

HepG2 cells [4] = assay: MTT assay, cytotoxicity of PC and NEFA in HepG2 cells; format: cell-based, human; details: 0-100 μM PC, 24 hours
Experimental: as §6, §7
In order to identify cytotoxicity of PC and NEFA in HepG2 cells, various concentrations of PC (0, 5, 10, 25, 50, and 100 μM) or NEFA (0, 0.5, 1, and 2 mM) were treated for 24 hours, and then MTT assay was used to determine cell viability.

C/EBPα [5] = assay: Western blotting, C/EBPα protein in MDI-induced 3T3-L1 adipocytes; format: cell-based, mouse; details: vs MDI-induced group
Experimental: as §1, §2, §4

FAS [6] = assay: Real-time PCR, FAS RNA in 3T3-L1 adipocytes; format: cell-based, mouse; details: vs fully differentiated adipocytes
Experimental: as §1, §9
(§11) In order to determine whether the PC inhibits the adipogenic factors, the degree of expression of the adipogenic factors was examined through Western blotting and real-time PCR. FAS and SREBP1 play an important role in adipogenesis, protein expression levels of which were investigated. […]

3T3-L1 cells [7] = assay: MTT assay, cytotoxicity of PC in 3T3-L1 cells; format: cell-based, mouse; details: 0-100 μM PC, 48 hours
Experimental: 3T3-L1 preadipocytes were inoculated into a 96-well cell culture plate by 1×10^4 cells/well and incubated overnight. The medium was then replaced with DMEM including different concentrations of PC (0, 5, 10, 25, 50, 75, and 100 μM) for 48 hours.
as §7
In order to identify cytotoxicity of PC in 3T3-L1 cells, various concentrations of PC (0, 5, 10, 25, 50, 75, and 100 μM) were treated for 48 hours, and then cell viability was determined using MTT assay.

SREBP1c [8] = assay: Real-time PCR, SREBP1c RNA in 3T3-L1 adipocytes; format: cell-based, mouse; details: vs fully differentiated adipocytes
Experimental: as §1, §9, §11

C/EBPα [9] = assay: Real-time PCR, C/EBPα mRNA in 3T3-L1 adipocytes; format: cell-based, mouse; details: vs fully differentiated adipocytes
Experimental: as §1, §9
(§12) To investigate how PC inhibits adipose tissue generation in 3T3-L1 cells, investigation was performed on protein expression levels of key adipose tissue generation markers. C/EBPα and PPARγ are well-known major transcription factors in adipose tissue generation. […]

HepG2 cells [10] = assay: Oil Red O staining, fat accumulation in fatty liver-induced HepG2 cells; format: cell-based, human; details: PC 0, 25, 50 μM, vs cells solely treated with NEFA
Experimental: as §5
(§13) The treated cells were washed with PBS and fixed with 10% formalin for 1 hour. The cells were then washed with 60% isopropanol and dried completely. A 60% Oil Red O working solution diluted in distilled water (DW) was added to the cells. In the case of hepatocytes, in order to observe the morphology of the cells, they were additionally treated with hematoxylin for 1 minute for staining. The stained cells were washed with DW 3 times and photographed using the Olympus IX71 microscope (Olympus, Tokyo, Japan). To quantify lipid accumulation, stained cells were dissolved in 100% isopropanol, and measurement was performed at 490 nm with a microplate reader (Bio-Rad).
To investigate whether PC has an inhibitory effect on fat accumulation, cells were treated in the presence and absence of PC at various concentrations (0, 25, and 50 μM), using Oil red O staining. […] Thus, PC reduced accumulation of lipid in fatty liver-induced HepG2 cells.

COX-2 = assay: Western blotting, COX-2 in NEFA-induced fatty liver HepG2 cells; format: cell-based, human; details: NEFA-treated HepG2 cells
Experimental: as §5, §2
It is known that if the symptoms persist in the fatty liver stage, it causes an inflammatory reaction to develop steatohepatitis. […]

SREBP1c [11] = assay: Western blotting, SREBP1c protein in 3T3-L1 adipocytes; format: cell-based, mouse; details: dose-dependently, vs fully differentiated adipocytes
Experimental: as §1
as §2, with “hour. […]” for “hour.”

SREBP1c [12] = assay: Immunofluorescence analysis, SREBP1c in MDI-induced adipocytes; format: cell-based, mouse
Experimental: The cells were treated with or without PC in a 4-well confocal dish. After treatment, the cells were fixed with 10% formalin for 10 minutes, treated with 0.2% Triton X diluted in PBS for 20 minutes, washed with PBS 3 times, and blocked with 5% BSA dissolved in PBS for 1 hour. Next, cells were incubated overnight in the presence of anti-SREBP1 antibodies (1:500 in PBS) at 4° C., followed by incubation in the presence of Alexa Fluor-555 antibody for 1 hour at room temperature. The cell nucleus was stained with 4,6-diamidino-2-phenylindole (DAPI: Sigma-Aldrich) at room temperature for 3 minutes. DAPI-stained cells were washed with PBS for 30 minutes, and fluorescence was observed using CELENA™ S Digital Imaging System (Logos Biosystems, Inc.).
In order to determine whether the PC inhibits the adipogenic factors, the degree of expression of the adipogenic factors was examined through Western blotting and real-time PCR. FAS and SREBP1 play an important role in adipogenesis, protein expression levels of which were investigated. […] In addition, according to FIGS. 3B and 3C, the RNA level was reduced compared to fully differentiated adipocytes.

AMPK = assay: Western blotting, AMPK phosphorylation in 3T3-L1 adipocytes; format: cell-based, mouse
Experimental: as §1, §2
(§14) The MAPK/Akt and AMPK/ACC signaling pathways are involved in the general steps of adipose tissue generation. […]

ACC1 = assay: Western blotting, ACC1 in NEFA-induced fatty liver HepG2 cells; format: cell-based, human; details: dose-dependently, vs NEFA-induced fatty liver cells
Experimental: as §5, §2, §8

C/EBPβ = assay: Real-time PCR, C/EBPβ mRNA in 3T3-L1 adipocytes; format: cell-based, mouse; details: vs adipocytes
Experimental: as §1, §9, §10

ACC = assay: Western blotting, ACC phosphorylation in 3T3-L1 adipocytes; format: cell-based, mouse
Experimental: as §1, §2, §14

FAS [13] = assay: Western blotting, FAS protein in 3T3-L1 adipocytes; format: cell-based, mouse; details: dose-dependently, vs fully differentiated adipocytes
Experimental: as §1
as §2, with “hour. […]” for “hour.”

PPARγ [14] = assay: Real-time PCR, PPARγ mRNA in 3T3-L1 adipocytes; format: cell-based, mouse; details: vs fully differentiated adipocytes
Experimental: as §1, §9, §12

3T3-L1 cells [15] = assay: Oil Red O staining, adipocyte differentiation / lipid accumulation in 3T3-L1 preadipocytes; format: cell-based, mouse; details: 3T3-L1 cells differentiated with PC 0, 25, 50 μM; vs fully differentiated adipocytes
Experimental: as §1, §13
To investigate whether PC has an inhibitory effect on adipose tissue differentiation, cells were differentiated in the presence and absence of PC at various concentrations (0, 25, and 50 μM), and then Oil red O staining was used. […] Thus, PC reduced accumulation of lipids in 3T3-L1 cells during adipose tissue generation differentiation.

[16] = PC treatment, 3T3-L1 adipocytes
[17] = vs fully differentiated adipocytes

Polygalin C [PC]
expression level of activated MAPK kinase (MAPK kinase): significantly reduced dose-dependently
relative protein level of PPARγ (PPARγ [1]): decreased dose-dependently
cell viability (MTT) in NEFA-treated cells (HepG2 cells [2]): cell viability was restored
expression level of activated Akt (Akt): significantly reduced dose-dependently
expression level of FAS (FAS [3]): significantly reduced
mRNA level of C/EBPδ (C/EBPδ): decreased concentration-dependently
concentration with non-toxic effect (cell viability, MTT) (HepG2 cells [4]): up to 100 μM
relative protein level of C/EBPα (C/EBPα [5]): decreased dose-dependently
RNA level of FAS (FAS [6]): reduced
concentration with non-toxic effect (cell viability, MTT) (3T3-L1 cells [7]): up to 50 μM
RNA level of SREBP1c (SREBP1c [8]): reduced
mRNA expression level of C/EBPα (C/EBPα [9]): reduced
production of lipid droplets (Oil red O) (HepG2 cells [10]): dose-dependently inhibited
expression of COX-2 induced by NEFA treatment (COX-2): reduced concentration-dependently
protein expression level of SREBP1c (SREBP1c [11]): significantly reduced
MDI-induced SREBP1c expression (immunofluorescence) (SREBP1c [12]): significant relieving effect
total AMPK expression level (AMPK; [16]): unchanged
phosphorylation of AMPK (AMPK; [17]): significantly increased
expression level of ACC1 (ACC1): significantly reduced
mRNA level of C/EBPβ (C/EBPβ): decreased concentration-dependently
total ACC expression level (ACC; [16]): unchanged
phosphorylation of ACC (ACC; [17]): significantly increased
protein expression level of FAS (FAS [13]): significantly reduced
mRNA expression level of PPARγ (PPARγ [14]): reduced
production of lipid droplets (Oil red O) (3T3-L1 cells [15]): dose-dependently inhibited

— patent US12678403B2, “Pharmaceutical composition for preventing or treating obesity or non-alcoholic fatty liver containing Polygalin C as active ingredient” (UNIVERSITY-INDUSTRY COOPERATION GROUP OF KYUNG HEE …, priority 2021, dated 2026)
